Experiment [1] concerns the target T1, human GPR18 (Homo sapiens, UniProt Q14330).
T1 sequence (Q14330 1-331): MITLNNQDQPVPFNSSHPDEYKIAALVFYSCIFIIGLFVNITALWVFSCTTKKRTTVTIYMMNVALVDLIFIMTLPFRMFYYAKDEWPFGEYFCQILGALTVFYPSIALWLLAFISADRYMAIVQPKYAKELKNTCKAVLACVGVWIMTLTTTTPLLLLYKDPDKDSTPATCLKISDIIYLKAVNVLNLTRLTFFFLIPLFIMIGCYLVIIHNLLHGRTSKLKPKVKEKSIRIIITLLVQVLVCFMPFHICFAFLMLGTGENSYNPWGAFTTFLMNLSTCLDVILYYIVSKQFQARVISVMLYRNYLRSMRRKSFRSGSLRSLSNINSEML
As to conditions: for agonist effect on β-arrestin recruitment at GPR18: test compound 10 µM, related to effect of Δ9-THC 10 µM = 100%. On the technique in general: Recruitment of arrestin is a read-out of receptor activation apart from second messengers.

The target in experiment [2] is T2, human CB1 receptor (Homo sapiens, UniProt P21554). To be noted: determined at 100 µM; cited from earlier work.
The target of experiment [3] is T1, human GPR18. The experiment is described as follows: cell-based. To be noted: for inhibition at 10 µM: CHO, read-out: % inhibition of Δ9-THC (10 µM)-induced β-arrestin recruitment at GPR18, test compound at 10 µM; for IC50: GPR18 IC50, β-arrestin recruitment, antagonist mode vs. Δ9-THC (10 µM).
The target of a further experiment is human GPR55 (Homo sapiens, UniProt Q9Y2T6). Put plainly: β-arrestin recruitment assay (PathHunter), CHO cells expressing GPR55. To be noted: for inhibition at 10 µM: CHO; for IC50: GPR55 IC50, β-arrestin recruitment, antagonist mode vs. LPI (1 µM); for agonist effect on β-arrestin recruitment at GPR55: test compound 10 µM, related to effect of LPI 1 µM = 100%.
Experiment [4] has as its target T3, human CB2 receptor (Homo sapiens, UniProt P34972). The experiment is described as follows: Radioligand binding (heterologous competition) vs. [3H]CP55,940 at CB2. As to conditions: three independent experiments in duplicates.
Experiment [5] deals with T3, human CB2 receptor. Put plainly: cAMP accumulation assay, CHO cells expressing CB2. Type of experiment: cell-based.
Experiment [6] addresses T3, human CB2 receptor. As to conditions: in words; cited from earlier work.
Experiment [7] addresses T2, human CB1 receptor. The experiment is described as follows: biochemical. As to conditions: membranes of CHO cells expressing human CB1; three independent experiments in duplicates; read-out: Ki CB1, heterologous competition vs. [3H]CP55,940. Type of experiment: binding.
Experiment [8] deals with T2, human CB1 receptor. The experiment is described as follows: cAMP accumulation assay, CHO cells expressing CB1. Type of experiment: cell-based. (In general: Changes in cAMP serve as a functional read-out for many G protein-coupled receptors.)
[9] abbreviates: read-out: % inhibition of LPI (1 µM)-induced β-arrestin recruitment at GPR55, test compound at 10 µM.
Where [10] appears, read: membranes of CHO cells expressing human CB2, read-out: Ki CB2, heterologous competition vs. [3H]CP55,940.
Where [11] appears, read: at 10 µM, compared to max. effect of full agonist CP55,940 (1 µM) = 100%.

Like-named read-outs stand apart in the source and are kept apart here. Marks after values point to notes of the source that are not given here.

T2 sequence (P21554 whole entry): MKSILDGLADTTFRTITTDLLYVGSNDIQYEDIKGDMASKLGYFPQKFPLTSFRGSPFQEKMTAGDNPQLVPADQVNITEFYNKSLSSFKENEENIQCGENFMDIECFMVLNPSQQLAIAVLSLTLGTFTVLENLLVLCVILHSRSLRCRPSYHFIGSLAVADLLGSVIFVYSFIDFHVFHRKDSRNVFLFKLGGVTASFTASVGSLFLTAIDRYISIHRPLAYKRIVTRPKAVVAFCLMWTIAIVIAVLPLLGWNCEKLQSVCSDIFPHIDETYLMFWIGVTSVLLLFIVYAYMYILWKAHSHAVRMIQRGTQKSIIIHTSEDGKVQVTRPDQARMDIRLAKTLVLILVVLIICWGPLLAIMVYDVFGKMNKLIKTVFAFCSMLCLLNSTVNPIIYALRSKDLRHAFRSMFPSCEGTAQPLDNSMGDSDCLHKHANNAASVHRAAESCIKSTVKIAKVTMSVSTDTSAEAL
T3 sequence (P34972 whole entry): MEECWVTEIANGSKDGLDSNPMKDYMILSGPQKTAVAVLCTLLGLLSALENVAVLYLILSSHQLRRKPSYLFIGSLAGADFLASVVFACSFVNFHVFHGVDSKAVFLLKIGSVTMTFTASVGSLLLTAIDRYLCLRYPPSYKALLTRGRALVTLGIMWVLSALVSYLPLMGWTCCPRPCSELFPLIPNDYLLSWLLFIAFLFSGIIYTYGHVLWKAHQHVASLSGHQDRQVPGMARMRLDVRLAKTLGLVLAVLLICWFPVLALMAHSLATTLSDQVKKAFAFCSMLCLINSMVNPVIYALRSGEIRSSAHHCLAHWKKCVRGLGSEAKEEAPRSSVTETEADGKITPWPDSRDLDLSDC
Sequence of human GPR55 (Q9Y2T6 whole entry): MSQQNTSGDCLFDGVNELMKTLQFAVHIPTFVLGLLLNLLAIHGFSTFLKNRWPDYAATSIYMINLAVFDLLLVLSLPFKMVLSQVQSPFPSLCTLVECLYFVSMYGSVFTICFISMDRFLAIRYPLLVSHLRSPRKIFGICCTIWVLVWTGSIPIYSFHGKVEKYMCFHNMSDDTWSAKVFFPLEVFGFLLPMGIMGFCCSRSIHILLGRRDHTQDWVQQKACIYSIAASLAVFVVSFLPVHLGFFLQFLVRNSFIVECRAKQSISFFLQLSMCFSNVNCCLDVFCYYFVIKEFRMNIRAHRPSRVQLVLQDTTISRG

Take `C=CCc1ccc(O)c(-c2cc(CC=C)ccc2O)c1` [Compound 9, 4-allyl-2-(5-allyl-2-hydroxyphenyl)phenol, reference compound]: the “agonist effect on β-arrestin recruitment at GPR18” value (“agonist effect … at GPR18” below) at human GPR18 [1] was 0%. On human CB1 receptor [2], the “efficacy CB1, cAMP accumulation assay” value was 62%. For the same compound, at human GPR18 [3], the EC50 was > 10 µM, the inhibition at 10 µM is 2% and the IC50 is > 10 µM. Also, on human GPR55, the concentration for a half-maximal effect (EC50) is > 10 µM, the IC50 was > 10 µM and the “agonist effect on β-arrestin recruitment at GPR55” value (“agonist effect … at GPR55” below) amounted to 11%. Also, the inhibition at 10 µM at human GPR55 (read-out: % inhibition of LPI (1 µM)-induced β-arrestin recruitment at GPR55) was determined as 0%.
`C=CCc1ccc(O)c(-c2ccc(OC)c(CC=C)c2)c1` [Compound 11, 4′-O-Methylhonokiol, reference compound] registered a Ki at human CB2 receptor [4] (Ki CB2, heterologous competition vs. [3H]CP55,940, membranes of CHO cells expressing human CB2) of 0.0433 ± 0.0171 µM. The “functional property at CB2 (agonist/antagonist)” value at human CB2 receptor [5] (in words, standard ligands partly from the literature) is listed as “agonist”. For the same compound, on human GPR18 [1] (in words), the “functional property at GPR18 (agonist/antagonist)” value is on record as “antagonist”. In addition, the “agonist effect … at GPR18” value at human GPR18 [1] was 0%. Also, the “functional property at CB2” value at human CB2 receptor [6] is “inverse agonist”. For the same compound, at human GPR18 [3], the 50% effective concentration (EC50) was > 10 µM, the inhibition at 10 µM is 37% and the IC50 was > 10 µM. Besides, on human GPR55, the concentration for a half-maximal effect (EC50) is > 10 µM, the IC50 came to 7.77 ± 0.97 µM and the “agonist effect … at GPR55” value is on record as 4%. The inhibition at 10 µM on human GPR55 (setting [9]) stood at 87%. For the same compound, the “functional property at GPR55 (agonist/antagonist)” value at human GPR55 (in words) is given as “antagonist”.
As for `CCCCc1ccc(O)c(-c2cc(CCCC)ccc2O)c1` [Compound 43], the inhibitory constant (Ki) was determined as 2.7 ± 1.2 µM on human CB1 receptor [7] and 1.59 ± 0.04 µM on human CB2 receptor [4] (setting [10]). Further, the EC50 on human CB1 receptor [8] was 7.11 ± 1.43 µM; on human CB2 receptor [5], 0.378 ± 0.148 µM; at human GPR18 [3], > 10 µM; on human GPR55, > 10 µM. The “agonist effect … at GPR18” value on human GPR18 [1] turned out to be 0%. Besides, the inhibition at 10 µM on human GPR18 [3] is 74%; on human GPR55 (setting [9]), 0%. The IC50 on human GPR18 [3] was 12 ± 1.4 µM; against human GPR55 it was > 10 µM. In addition, the “agonist effect … at GPR55” value at human GPR55 worked out at 29%.
As for `CCCCCCCCc1ccc(O)c(-c2cc(CCC)ccc2O)c1` [Compound 63], the inhibition constant Ki on human CB1 receptor [7] worked out at 1.66 ± 0.45 µM. Also, on human CB2 receptor [4] (setting [10]), the Ki was 0.955 ± 0.418 µM. Besides, the “efficacy CB1, cAMP accumulation assay” value at human CB1 receptor [8] (setting [11]) was “(73%)^b”. The “efficacy CB2, cAMP accumulation assay” value at human CB2 receptor [5] (setting [11]) is on record as “(52%)^b”. Further, at human GPR18 [1], the “agonist effect … at GPR18” value is listed as 0%. For the same compound, on human GPR18 [3], the EC50 was > 10 µM, the inhibition at 10 µM was 123% and the IC50 came to 10.7 ± 0.7 µM. In addition, on human GPR55, the concentration giving a half-maximal response (EC50) was > 10 µM, the IC50 was > 10 µM and the “agonist effect … at GPR55” value was 0%. Further, at human GPR55 (setting [9]), the inhibition at 10 µM was found to be 0%.

The EC50 is the concentration that produces a half-maximal response. In general, inhibition refers to the change of the read-out against control, counted positive when it falls. What is called IC50 is the concentration at which inhibition is half-maximal. A word on the Ki: it is the dissociation constant of the complex between target and ligand, obtained from inhibition or displacement.

The record behind these values is PMC3813752 (PLoS ONE, 2013).
